Reference: patent US20160237045A1, “SUBSTITUTED PHENYLALANINE DERIVATIVES” (BAYER PHARMA AKTIENGESELLSCHAFT, priority 2013, published 2016)
Where a name gives a salt, the structure may show the parent alone.

Experiments:
human factor XIa = biological target: T1, human factor XIa (Homo sapiens, UniProt P03951); assay: Measurement of FXIa inhibition (fluorogenic peptide substrate Boc-Glu(OBzl)-Ala-Arg-AMC); assay type: biochemical; conditions: factor XIa from Kordia 0.45 nM; 15 min preincubation; 30 min at 22° C.; fluorescence of AMC
T1 construct: purchased Kordia
Procedure: a.1) Measurement of FXIa Inhibition
The factor XIa inhibition of the substances according to the invention is determined using a biochemical test system which utilizes the reaction of a peptidic factor XIa substrate to determine the enzymatic activity of human factor XIa. Here, factor XIa cleaves from the peptic factor XIa substrate the C-terminal aminomethylcoumarin (AMC), the fluorescence of which is measured. The determinations are carried out in microtitre plates.
Test substances are dissolved in dimethyl sulphoxide and serially diluted in dimethyl sulphoxide (3000 μM to 0.0078 μM; resulting final concentrations in the test: 50 μM to 0.00013 μM). In each case 1 μl of the diluted substance solutions is placed into the wells of white microtitre plates from Greiner (384 wells). Subsequently, the following are added successively: 20 μl of assay buffer (50 mmol/l Tris buffer pH 7.4; 100 mmol/l sodium chloride; 5 mmol/l calcium chloride; 0.1% bovine serum albumin) and 20 μl of factor XIa from Kordia (0.45 nM in assay buffer). After 15 min of incubation, the enzyme reaction is started by addition of 20 μl of the factor XIa substrate Boc-Glu(OBzl)-Ala-Arg-AMC dissolved in assay buffer (10 μM in assay buffer) from Bachem, the mixture is incubated at room temperature (22° C.) for 30 min and fluorescence is then measured (excitation: 360 nm, emission: 460 nm). The measured emissions of the test batches with test substance are compared to those of control batches without test substance (only dimethyl sulphoxide instead of test substance in dimethyl sulphoxide), and IC50 values are calculated from the concentration/activity relationships.

plasma = assay: Determination of anticoagulatory activity: activated partial thromboplastin time (aPTT) in plasma; conditions: in vitro in human and animal plasma (species of Table B not stated); C.K. Prest kit; 37° C., 3 minutes incubation
Procedure: a.4) Determination of Anticoagulatory Activity
The anticoagulatory activity of the test substances is determined in vitro in human and animal plasma (for example mouse, rat, rabbit, pig and dog plasma). To this end, blood is drawn off in a mixing ratio of sodium citrate/blood of 1:9 using a 0.11 molar sodium citrate solution as receiver. Immediately after the blood has been drawn off, it is mixed thoroughly and centrifuged at about 4000 g for 15 minutes. The supernatant is pipetted off.
The activated partial thromboplastin time (aPTT) is determined in the presence of varying concentrations of test substance or the corresponding solvent using a commercial test kit (C.K. Prest from Diagnostica Stago). The test compounds are incubated with the plasma and the PTT reagent (cephalin, kaolin) at 37° C. for 3 minutes. Coagulation is then started by addition of a 25 mM aqueous calcium chloride solution, and the time when coagulation occurs is determined. The concentration of test substance which brings about a 1.5-fold extension of the aPTT is determined.

T1 sequence (P03951 388-625 limits assumed): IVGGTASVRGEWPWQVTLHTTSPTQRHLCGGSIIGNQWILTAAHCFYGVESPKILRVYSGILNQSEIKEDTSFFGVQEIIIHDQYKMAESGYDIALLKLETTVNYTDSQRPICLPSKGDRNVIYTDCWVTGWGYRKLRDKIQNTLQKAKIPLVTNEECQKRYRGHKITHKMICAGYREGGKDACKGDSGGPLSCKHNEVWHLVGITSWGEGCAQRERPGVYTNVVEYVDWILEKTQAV
T1 sequence (P03951 19-387 partner limits assumed): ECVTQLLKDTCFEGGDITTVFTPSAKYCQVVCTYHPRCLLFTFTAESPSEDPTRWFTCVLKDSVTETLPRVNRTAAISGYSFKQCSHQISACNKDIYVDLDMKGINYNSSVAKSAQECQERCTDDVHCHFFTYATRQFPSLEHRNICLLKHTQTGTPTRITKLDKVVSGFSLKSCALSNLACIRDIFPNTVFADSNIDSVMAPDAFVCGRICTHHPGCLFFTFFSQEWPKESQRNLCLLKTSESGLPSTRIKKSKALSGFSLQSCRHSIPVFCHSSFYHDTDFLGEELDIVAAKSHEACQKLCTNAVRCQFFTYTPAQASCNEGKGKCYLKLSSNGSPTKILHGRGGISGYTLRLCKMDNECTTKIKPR

IC50 (human factor XIa) [nM]	Structure (SMILES)	aPTT (concentration of test substance which brings about a 1.5-fold extension of the aPTT) (plasma) [µmol/L]
4.2	NC[C@H]1CC[C@H](C(=O)N[C@@H](Cc2ccc(-c3ccccc3CO)cc2)C(=O)Nc2ccc(-c3nn[nH]n3)cc2)CC1 [Example 14, trans-4-(Aminomethyl)-N-[(2S)-3-[2′-(hydroxymethyl)biphenyl-4-yl]-1-oxo-1-{[4-(2H-tetrazol-5-yl)phenyl]amino}propan-2-yl]cyclohexanecarboxamide hydrochloride]	0.31
39	NC[C@H]1CC[C@H](C(=O)N[C@@H](Cc2ccc(-c3ccccc3C(=O)NC3CCNCC3)cc2)C(=O)Nc2ccc(-c3nn[nH]n3)cc2)CC1 [Example 6, 4′-[(2S)-2-({[trans-4-(Aminomethyl)cyclohexyl]carbonyl}amino)-3-oxo-3-{[4-(2H-tetrazol-5-yl)phenyl]amino}propyl]-N-(piperidin-4-yl)biphenyl-2-carboxamide hydrochloride]	0.57
5.5	NC[C@H]1CC[C@H](C(=O)N[C@@H](Cc2ccc(-c3ccccc3N)cc2)C(=O)Nc2ccc(-c3nn[nH]n3)cc2)CC1 [Example 8, trans-N-[(2S)-3-(2′-Aminobiphenyl-4-yl)-1-oxo-1-{[4-(2H-tetrazol-5-yl)phenyl]amino}propan-2-yl]-4-(aminomethyl)cyclohexanecarboxamide hydrochloride]	0.24
11	NC[C@H]1CC[C@H](C(=O)N[C@@H](Cc2ccc(-c3ccccc3C(=O)N3CCNCC3)cc2)C(=O)Nc2ccc(-c3nn[nH]n3)cc2)CC1 [Example 5, trans-4-(Aminomethyl)-N-[(2S)-1-oxo-3-[2′-(piperazin-1-ylcarbonyl)biphenyl-4-yl]-1-{[4-(2H-tetrazol-5-yl)phenyl]amino}propan-2-yl]cyclohexanecarboxamide hydrochloride]	0.32
12	NC[C@H]1CC[C@H](C(=O)N[C@@H](Cc2ccc(-c3ccccc3C(N)=O)cc2)C(=O)Nc2ccc(-c3nc(C(F)(F)C(F)(F)C(=O)O)n[nH]3)cc2)CC1 [Example 15, 3-[5-(4-{[(2S)-2-({[trans-4-(Aminomethyl)cyclohexyl]carbonyl}amino)-3-(2′-carbamoylbiphenyl-4-yl)propanoyl]amino}phenyl)-1H-1,2,4-triazol-3-yl]-2,2,3,3-tetrafluoropropanoic acid hydrochloride]	0.23
2.8	NC[C@H]1CC[C@H](C(=O)N[C@@H](Cc2ccc(-c3ccccc3C(=O)N3CCOCC3)cc2)C(=O)Nc2ccc(-c3nn[nH]n3)cc2)CC1 [Example 2, trans-4-(Aminomethyl)-N-[(2S)-3-[2′-(morpholin-4-ylcarbonyl)biphenyl-4-yl]-1-oxo-1-{[4-(2H-tetrazol-5-yl)phenyl]amino}propan-2-yl]cyclohexanecarboxamide hydrochloride]	0.03
1.3	NC[C@H]1CC[C@H](C(=O)N[C@@H](Cc2ccc(-c3ccccc3C(=O)N3CCCCC3)cc2)C(=O)Nc2ccc(-c3nn[nH]n3)cc2)CC1 [Example 4, trans-4-(Aminomethyl)-N-[(2S)-1-oxo-3-[2′-(piperidin-1-ylcarbonyl)biphenyl-4-yl]-1-{[4-(2H-tetrazol-5-yl)phenyl]amino}propan-2-yl]cyclohexanecarboxamide hydrochloride]	0.07
1.2	CC(C)Oc1ccccc1-c1ccc(C[C@H](NC(=O)[C@H]2CC[C@H](CN)CC2)C(=O)Nc2ccc(-c3nc(C(F)(F)C(F)(F)C(=O)O)n[nH]3)cc2)cc1 [Example 17, 3-[5-(4-{[(2S)-2-({[trans-4-(Aminomethyl)cyclohexyl]carbonyl}amino)-3-(2′-isopropoxybiphenyl-4-yl)propanoyl]amino}phenyl)-1H-1,2,4-triazol-3-yl]-2,2,3,3-tetrafluoropropanoic acid hydrochloride]	0.22
4	CC(=O)Nc1ccccc1-c1ccc(C[C@H](NC(=O)[C@H]2CC[C@H](CN)CC2)C(=O)Nc2ccc(-c3nn[nH]n3)cc2)cc1 [Example 13, trans-N-[(2S)-3-(2′-Acetamidobiphenyl-4-yl)-1-oxo-1-{[4-(2H-tetrazol-5-yl)phenyl]amino}propan-2-yl]-4-(aminomethyl)cyclohexanecarboxamide hydrochloride]	0.18
7.2	CN(C)CC(=O)Nc1ccccc1-c1ccc(C[C@H](NC(=O)[C@H]2CC[C@H](CN)CC2)C(=O)Nc2ccc(-c3nn[nH]n3)cc2)cc1 [Example 10, trans-4-(Aminomethyl)-N-[(2S)-3-(2′-{[(dimethylamino)acetyl]amino}biphenyl-4-yl)-1-oxo-1-{[4-(2H-tetrazol-5-yl)phenyl]amino}propan-2-yl]cyclohexanecarboxamide hydrochloride]	0.23
8.9	NC[C@H]1CC[C@H](C(=O)N[C@@H](Cc2ccc(-c3ccccc3NC(=O)C3CCNCC3)cc2)C(=O)Nc2ccc(-c3nnn[nH]3)cc2)CC1 [Example 12, N-{4′-[(2S)-2-({[trans-4-(Aminomethyl)cyclohexyl]carbonyl}amino)-3-oxo-3-{[4-(1H-tetrazol-5-yl)phenyl]amino}propyl]biphenyl-2-yl}piperidine-4-carboxamide hydrochloride]	0.29
1.9	NC[C@H]1CC[C@H](C(=O)N[C@@H](Cc2ccc(-c3ccccc3S(=O)(=O)N3CCOCC3)cc2)C(=O)Nc2ccc(-c3nn[nH]n3)cc2)CC1 [Example 1, trans-4-(Aminomethyl)-N-[(2S)-3-[2′-(morpholin-4-ylsulphonyl)biphenyl-4-yl]-1-oxo-1-{[4-(2H-tetrazol-5-yl)phenyl]amino}propan-2-yl]cyclohexanecarboxamide hydrochloride]	0.17
3	NC[C@H]1CC[C@H](C(=O)N[C@@H](Cc2ccc(-c3ccccc3NC(=O)C3CCOCC3)cc2)C(=O)Nc2ccc(-c3nn[nH]n3)cc2)CC1 [Example 11, N-{4′-[(2S)-2-({[trans-4-(Aminomethyl)cyclohexyl]carbonyl}amino)-3-oxo-3-{[4-(2H-tetrazol-5-yl)phenyl]amino}propyl]biphenyl-2-yl}tetrahydro-2H-pyran-4-carboxamide hydrochloride]	0.16
6.2	NC[C@H]1CC[C@H](C(=O)N[C@@H](Cc2ccc(-c3ccccc3CN3CCNCC3)cc2)C(=O)Nc2ccc(-c3nnn[nH]3)cc2)CC1 [Example 16, trans-4-(Aminomethyl)-N-[(2S)-1-oxo-3-[2′-(piperazin-1-ylmethyl)biphenyl-4-yl]-1-{[4-(1H-tetrazol-5-yl)phenyl]amino}propan-2-yl]cyclohexanecarboxamide hydrochloride]	0.08

Structure (SMILES)	IC50 (human factor XIa) [nM]	aPTT (concentration of test substance which brings about a 1.5-fold extension of the aPTT) (plasma) [µmol/L]
CNC(=O)c1ccccc1-c1ccc(C[C@H](NC(=O)[C@H]2CC[C@H](CN)CC2)C(=O)Nc2ccc(-c3nn[nH]n3)cc2)cc1 [Example 7, 4′-[(2S)-2-({[trans-4-(Aminomethyl)cyclohexyl]carbonyl}amino)-3-oxo-3-{[4-(2H-tetrazol-5-yl)phenyl]amino}propyl]-N-methylbiphenyl-2-carboxamide hydrochloride]	12	0.61
NCC(=O)NCC(=O)NCC(=O)Nc1ccccc1-c1ccc(C[C@H](NC(=O)[C@H]2CC[C@H](CN)CC2)C(=O)Nc2ccc(-c3nn[nH]n3)cc2)cc1 [Example 9, Glycylglycyl-N-{4′-[(2S)-2-({[trans-4-(aminomethyl)cyclohexyl]carbonyl}amino)-3-oxo-3-{[4-(2H-tetrazol-5-yl)phenyl]amino}propyl]biphenyl-2-yl}glycinamide hydrochloride]	5.3	0.12
